The record followed here is patent US8741849B2, “Kinase inhibitors and uses thereof” (priority 2007, dated 2014).

One test relates to A549 lung cancer cells. Briefly: Toxicity testing on cancer cell lines (MTT). To be noted: 72 hours, n=4, read-out: Cell Line IC50, A549. It counts as cell-based. How it is done: (§1) The seven cell lines were: estrogen dependent MCF-7 breast cancer cells, non estrogen dependent MDA 231 breast cancer cells, SF 539 central nervous system cancer cells, HT29 colon cancer cells, Paca 2 pancreatic cancer cells, PC3 prostate cancer cells, and A549 lung cancer cells. For each cell line, exponentially growing cells were trypsinized and seeded into individual wells of a 96-well plate. Cells were maintained in a humidified, 5% CO2 incubator at 37° C. for 24 hours. The next day, fresh media was added along with 1 μl of a stock solution of peptide to give final peptide concentrations of 0.3 μM, 1 μM, 3 μM, 10 μM, 30 μM, and 100 μM (n=4). Doxorubicin was tested as a positive control. After incubating the cells for 72 hours, to each well was added 20 μl of 0.5% MTT {3-([…])-2,5 diphenyl tetrazolium bromide} solution. The plates then were incubated for an additional 4 hours, at which time the absorbance at 570 nm was measured for each well using a microplate reader. The absorbance was plotted as function of peptide concentration, and IC50 values were calculated for each peptide for each cell line.

The test system of the next test is HT29 colon cancer cells. Briefly: Toxicity testing on cancer cell lines (MTT). The test is classed as cell-based. To be noted: 72 hours, n=4, read-out: Cell Line IC50, HT29. The method, then: as §1
Test [1] has as its system PC3 prostate cancer cells. Briefly: Toxicity testing on cancer cell lines (MTT). The test is classed as cell-based. As to conditions: 72 hours, n=4, read-out: Cell Line IC50, PC3. The method, then: as §1
Test [2] relates to Paca 2 pancreatic cancer cells. Kind of test: Toxicity testing on cancer cell lines (MTT). It counts as cell-based. As to conditions: 72 hours, n=4, read-out: Cell Line IC50, Paca 2. How it is done:
as §1

Test [3] concerns SF 539 central nervous system cancer cells. Kind of test: Toxicity testing on cancer cell lines (MTT). The test is classed as cell-based. As to conditions: 72 hours, n=4, read-out: Cell Line IC50, SF 539. The method, then: as §1
Test [4] has as its system estrogen dependent MCF-7 breast cancer cells. Kind of test: Toxicity testing on cancer cell lines (MTT). To be noted: 72 hours, n=4, read-out: Cell Line IC50, MCF-7. The test is classed as cell-based. How it is done:
as §1

In test [5] the test system is non estrogen dependent MDA 231 breast cancer cells. Kind of test: Toxicity testing on cancer cell lines (MTT). It counts as cell-based. As to conditions: 72 hours, n=4, read-out: Cell Line IC50, MDA 231. The method, then: as §1
Test [6] concerns MCF-7 breast cancer cells. Kind of test: Evaluation of apoptosis (Hoescht, Annexin V, propidium iodide staining). The test is classed as cell-based. To be noted: MCF-7 cells, 24 hours, 3 μM or 10 μM. How it is done: MCF-7 breast cancer cells were seeded in individual wells of a 96-well plate and were maintained for 24 hours in a humidified, 5% CO2 incubator at 37° C. The next day, fresh media was added along with 1 μl of a stock solution of KIP peptide […] [SEQ ID NO: 166] to give a final concentration of 3 μM or 10 μM (n=4). After incubating the cells for 24 hours, cells were treated with Hoescht dye for nuclear staining, propidium iodide to stain for DNA from necrotic cells, and Annexin V to visualize apoptotic cells.

Another test concerns the target T1, PKC β 1 (h) (Homo sapiens, UniProt P05771).
T1 construct: purchased Upstate (Millipore) KinaseProfiler service
Briefly: kinase profiler assay (radiometric). As to conditions: @ = 30 μm peptide; less than 100 = kinase inhibition, greater than 100 = stimulation. It counts as biochemical. The source says:
(§2) KIP peptides […] [SEQ ID NO: 142], […] [SEQ ID NO: 173], and […] [SEQ ID NO: 163] were utilized to profile a variety of different kinases. The kinase profiler assay services provided by Upstate, a part of Millipore Corporation (Billerica, Mass.), were utilized to conduct the kinase profiles. The kinase profiler assays, which are radiometric, are based on measuring the amount of radioactive transfer from an ATP (y-^33P-ATP) to a substrate peptide using known concentrations of kinase enzyme, inhibitor, ATP, and buffer at defined time points and temperatures. Details on the reaction conditions for each kinase are available at www.millipore.com/drugdiscovery/dd3/KinaseProfiler. […] ROCK-1(h) (5-10 mU) was incubated with 8 mM MOPS pH 7.0, 0.2 mM EDTA, 30 i.IM of the peptide […] [SEQ ID NO: 189], 10 mM Mg acetate and y-^33P-ATP (specific activity approximately 500 cpm/pmol, concentration as required) in a final reaction volume of 25 pl. The reaction was initiated by the addition of the MgATP mixture in the absence and presence of inhibitor compounds. After incubation for 40 minutes at room temperature, the reaction was stopped by the addition of 5) 11 of a 3% phosphoric acid solution. 10 pl of the reaction mixture then was spotted onto a P30 filtermat. The filtermat was washed three times for 5 minutes in 75 mM phosphoric acid, once in methanol, dried and counted by scintillation counting. Where the kinase is uninhibited, the kinase phosphorylates a positively charged substrate with radioactive ATP, which then binds to a negatively charged filter membrane. Scintillation counts (radioactivity) directly correlate with kinase activity. […] All profile data less than 100 indicate kinase inhibition while data greater than 100 indicate kinase stimulation.

In a further test the target is T2, PKG1α (h) (Homo sapiens, UniProt Q13976).
T2 construct: purchased Upstate (Millipore) KinaseProfiler service
T2 sequence (Q13976 1-671): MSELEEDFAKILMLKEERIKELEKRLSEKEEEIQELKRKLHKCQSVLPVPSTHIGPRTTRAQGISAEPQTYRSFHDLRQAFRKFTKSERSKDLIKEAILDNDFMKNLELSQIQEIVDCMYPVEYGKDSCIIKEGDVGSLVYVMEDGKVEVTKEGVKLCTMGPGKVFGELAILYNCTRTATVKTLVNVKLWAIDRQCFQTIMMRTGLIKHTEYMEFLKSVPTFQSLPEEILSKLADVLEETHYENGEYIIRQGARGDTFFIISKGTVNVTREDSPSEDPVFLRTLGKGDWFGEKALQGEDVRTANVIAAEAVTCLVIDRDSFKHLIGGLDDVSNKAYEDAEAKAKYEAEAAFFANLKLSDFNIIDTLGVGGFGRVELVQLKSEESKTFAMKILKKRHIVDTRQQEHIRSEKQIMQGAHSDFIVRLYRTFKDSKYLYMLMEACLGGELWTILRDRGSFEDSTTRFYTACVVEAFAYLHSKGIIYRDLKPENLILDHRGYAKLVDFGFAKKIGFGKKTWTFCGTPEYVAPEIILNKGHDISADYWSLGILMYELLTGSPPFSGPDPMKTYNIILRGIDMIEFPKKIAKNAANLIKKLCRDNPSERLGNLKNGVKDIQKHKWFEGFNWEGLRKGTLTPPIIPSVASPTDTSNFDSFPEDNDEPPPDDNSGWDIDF
Briefly: kinase profiler assay (radiometric). The test is classed as biochemical. To be noted: @ = 30 μm peptide; less than 100 = kinase inhibition, greater than 100 = stimulation.
Text: as §2

T1 sequence (P05771 whole entry): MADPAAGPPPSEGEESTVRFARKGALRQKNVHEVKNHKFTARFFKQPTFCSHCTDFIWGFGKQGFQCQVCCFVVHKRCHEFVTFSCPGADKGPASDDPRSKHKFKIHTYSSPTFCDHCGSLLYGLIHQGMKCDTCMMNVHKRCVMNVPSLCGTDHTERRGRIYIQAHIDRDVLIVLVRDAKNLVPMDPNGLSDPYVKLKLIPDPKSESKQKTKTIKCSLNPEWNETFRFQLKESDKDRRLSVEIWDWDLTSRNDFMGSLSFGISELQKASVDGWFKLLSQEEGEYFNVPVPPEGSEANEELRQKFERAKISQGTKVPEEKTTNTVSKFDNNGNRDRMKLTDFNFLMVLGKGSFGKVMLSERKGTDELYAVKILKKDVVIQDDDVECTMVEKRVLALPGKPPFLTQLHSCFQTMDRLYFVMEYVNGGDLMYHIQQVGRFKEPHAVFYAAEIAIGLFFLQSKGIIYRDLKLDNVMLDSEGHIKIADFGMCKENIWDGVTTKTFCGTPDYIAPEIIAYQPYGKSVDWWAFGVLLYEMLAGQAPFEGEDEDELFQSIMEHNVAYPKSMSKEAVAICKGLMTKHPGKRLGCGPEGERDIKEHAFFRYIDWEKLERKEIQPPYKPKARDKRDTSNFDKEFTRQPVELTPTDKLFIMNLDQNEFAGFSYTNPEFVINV

As to `CC[C@H](C)[C@H](NC(=O)[C@H](CCCCN)NC(=O)[C@H](CCCCN)NC(=O)[C@H](CC(C)C)NC(=O)[C@H](Cc1c[nH]c2ccccc12)NC(=O)[C@H](C)NC(=O)[C@H](CCCCN)NC(=O)[C@@H](NC(=O)[C@H](CCCNC(=N)N)NC(=O)[C@H](CCCNC(=N)N)NC(=O)[C@@H](N)Cc1c[nH]cn1)[C@@H](C)CC)C(=O)N[C@@H](CCCCN)C(=O)N[C@@H](C)C(=O)N[C@@H](CC(C)C)C(=O)N[C@@H](C)C(=O)N[C@@H](CCCNC(=N)N)C(=O)N[C@@H](CCC(N)=O)C(=O)N[C@@H](CC(C)C)C(=O)NCC(=O)N[C@H](C(=O)N[C@@H](C)C(=O)N[C@@H](C)C(=O)O)C(C)C` [Peptide 1], the IC50 – broadly, the midpoint of a concentration-inhibition curve – was found to be 8.7 µM in the test with A549 lung cancer cells; 6.7 µM in the test with HT29 colon cancer cells; 6 µM in test [1]; 9 µM in test [2]; 4.3 µM in test [3]; 1.6 µM in test [4]. Moreover, the 50% inhibitory concentration (IC50) in test [5] is 9.3 µM. For the same molecule, in test [6], the “Annexin V staining relative to propidium iodide staining (apoptosis)” value is recorded as “annexin V staining was much more intense than propidium iodide staining”.

On to WLRRIKAWLRRIKALNRQLGVAA, for which the “Profile-1, PKC β 1 (h)” value in the test with PKC β 1 (h) was determined as 8. Moreover, the “Profile-1, PKG1α (h)” value with PKG1α (h) came to 16.
